Measurements: patent US20200330456A1, “NOVEL APPLICATION OF GZD824 AND PHARMACEUTICALLY ACCEPTABLE SALTS THEREOF IN TREATING DISEASES” (HEALTHQUEST PHARMA INC., priority 2016, published 2020)

Experiments:
[1] = test system: NALM6 (Ph-negative acute lymphoblastic leukemia cell line); experiment: CCK8 cell activity test, NALM6; assay type: cell-based; conditions: GZD824 0-3 μM/L, 24 hours
Experimental: 1.1 Two types of cells, i.e. NALM6 (Ph-negative acute lymphoblastic leukemia cell line) and SUPB15 (Ph-positive acute lymphoblastic leukemia cell line), were treated with GZD824 of different concentrations (0-3 μM/L) respectively. After 24 hours, CCK8 is added. The mixture was incubated for 2 hours, and then its absorption value at 450 nm was detected with a microplate reader. […] We plotted a chart of cell activity based on the growth inhibition function of GZD824 on these […] types of cells, which is as shown in FIG. 1.

[2] = test system: primary pre-B ALL PDX in immunodeficient mouse (NSI); experiment: PDX mouse model, spleen size and weight; assay type: in vivo; conditions: two weeks
Source text: 3.1 According to the conventional method, the primary leukemia cells from patients were transplanted to immunodeficient mouse (NSI) to construct PDX mouse model. Two months after the transplantation, leukemia cells from patients account for over 95% of the mouse spleen. 1×10^6 leukemia cells originated from the spleen of the PDX mouse (P #1, P #2 and P #3) were transplanted through caudal vein to the NSI mouse bodies of eight weeks old and treated with a semilethal irradiation dose. The mice were divided into three groups with three mice in each group. When the ratio of human CD45 reaches 1%±0.2% of peripheral blood leukocyte of PDX mice by flow cytometry, the PDX mice were treated with GZD824 (25 mg/kg), Imatinib (50 mg/kg) and DMSO respectively for two weeks and then executed. […] Please refer to FIG. 6 for the results. […] 3.2 The primary leukemia cells from patients were transplanted to immunodeficient mouse (NSI) to construct PDX mouse model. 1×10^6 leukemia cells originated from PDX mouse (P #4 and P #5) were transplanted through caudal vein to the NSI mouse bodies of eight weeks old and treated with semilethal irradiation dose. The mice were divided into three groups with three mice in each group. […]

[3] = test system: primary pre-B ALL PDX in immunodeficient mouse (NSI); experiment: PDX mouse model, human CD45 positive cells by flow cytometry; assay type: in vivo; conditions: vs Imatinib and DMSO
Experimental: 4.1 After administration, PDX mice originated from patient P #1 were executed. The mouse blood was treated with red blood cell lysate to obtain the peripheral blood leukocytes. The mouse spleen was ground with 100 mesh screen to obtain spleen single cells. The marrow cells in the mouse marrow were washed with 1 mL injector to obtain mouse marrow single cells. The obtained mouse peripheral blood leukocytes, mouse spleen single cells and mouse marrow single cells from the above-mentioned steps were stained with anti-CD45-PE antibody and detected with flow cytometry.
4.2 Using the same treatment method in FIG. 9, the ratios of CD45 positive cells in mouse blood, spleen and marrow were detected by flow cytometry and the ratios of CD45 positive cells in PDX mouse blood, spleen and marrow originated from different patients (P #1(B), P #2(C), P #3(D)) were obtained by statistical analysis. […] Please refer to FIG. 10 for the results.
4.3 Using the same treatment method in FIG. 9, PDX mice originated from patient P #4 were executed after administration. The ratios of human CD45 positive cells in mouse blood, spleen and marrow were analyzed. […] Please refer to FIG. 11 for the results.
4.4 Using the same treatment method in FIG. 9, the ratios of CD45 positive cells in mouse blood, spleen and marrow were detected with flow cytometry and the ratios of CD45 positive cells in PDX mouse blood, spleen and marrow originated from different patients (P #4(F) and P #5(G)) were obtained by statistical analysis. […] Please refer to FIG. 12 for the results.

[4] = test system: primary pre-B ALL PDX in immunodeficient mouse (NSI); experiment: PDX mouse model, Giemsa / Hematoxylin-eosin staining of blood, spleen and marrow; assay type: in vivo; conditions: PDX patient P #2; vs Imatinib and DMSO
Experimental: 3.3 After executing mice in GZD824, Imatinib or DMSO groups, blood (upper FIG. 8), spleen (middle FIG. 8) and marrow (lower FIG. 8) tissues were stained with Giemsa staining or Hematoxylin-eosin staining method. 10-20 μL of mouse blood drop was pipetted to a glass slide, and evenly spread on the slide, dried in shade at room temperature, stained with Giemsa working fluid for 15 minutes and eluted with eluents. After being fixed with neutral formaldehyde for 24 hours, the mouse spleen and marrow were dehydrated, made transparent, waxed, embedded, sliced, stained and then observed with a microscope.

[5] = test system: human primary leukemia cells from P #1 PDX mouse spleen; experiment: Apoptosis of human primary leukemia cells from P #1 PDX mouse spleen, with and without IGF-1; assay type: cell-based; conditions: P #1 PDX spleen cells; GZD824 1 μM/L, 24 hours, vs DMSO
Experimental: 6.2 Human primary leukemia cells were extracted from P #1 PDX mouse spleen and co-cultured with DMSO, GZD824 (1 μM/L), IGF-1 (10 ng/mL), or GZD824 (1 μM/L) and IGF-1 (10 ng/mL) for 24 hours. The ratios of ANNEXIN V positive cells were analyzed by statistical methods. […] Please refer to FIG. 17 for the experimental results.

phosphorylated Rb = experiment: Western blot of NALM6 cells, phospho-Rb; assay type: cell-based; conditions: 3 μM/L, 1 μM/L, 24 hours
Experimental: 5.1. NALM6 cells treated with GZD824 were detected by Western blot method. After treating NALM6 cells with GZD824 of different concentrations (3 μM/L, 1 μM/L) for 24 hours, cells were collected and lysed to extract proteins. According to procedure of Western blot method, the extracted total proteins were analyzed with phospho-SRC, SRC, phospho-STAT3, STAT3, phospho-Rb, Rb and c-Myc antibodies. […] From the protein perspective, GZD824 kills leukemia cells through suppressing SRC/STAT3 signal pathway. Please refer to FIG. 13 for the experimental results.

Cc1ccc(C(=O)Nc2ccc(CN3CCN(C)CC3)c(C(F)(F)F)c2)cc1C#Cc1cnc2[nH]ncc2c1 [GZD824, (3-((1H-pyrazol[3,4-b]pyridine-5-substituted)ethinyl)-4-methyl-N-(4-((4-methylpiperazine-1-substituted)methyl)-3-(trifluoromethyl)phenyl)benzamide)]
cell activity (CCK8, absorption at 450 nm) [1]: prominently decrease the cell activity | sizes of mouse spleens ([2]; PDX P #1, P #2, P #3, GZD824 25 mg/kg, vs Imatinib (50 mg/kg) and DMSO groups): prominently smaller than those of the other two groups | sizes of mouse spleens ([2]; PDX P #4 and P #5, vs Imatinib and DMSO groups): no prominent difference from those of the other two groups | ratio of human CD45 positive cells in mouse blood, spleen and marrow ([3]; PDX patient P #1, flow pattern): prominently decrease the ratio of human CD45 positive cells in mouse blood, spleen and marrow | ratio of human CD45 positive cells in mouse blood ([3]; PDX patient P #4): prominently decrease the ratio of human CD45 positive cells in mouse blood | ratios of human CD45 positive cells in mouse blood, spleen and marrow ([3]; PDX patients P #1, P #2, P #3, statistical analysis): prominently decrease the ratios of human CD45 positive cells in mouse blood, spleen and marrow | ratio of human CD45 positive cells in mouse blood ([3]; PDX patients P #4 and P #5, statistical analysis): prominently decrease the ratio of human CD45 positive cells in mouse blood | infiltration of primary leukemia cells in mouse blood, spleen and marrow (staining) [4]: prominently decrease the infiltration of the primary leukemia cells | apoptosis of primary leukemia cells (ANNEXIN V positive cells) [5]: facilitate apoptosis of the primary leukemia cells | expression of phosphorylated Rb (phosphorylated Rb): suppresses the expression
